Measured values as given in US7056884B2, “Reduced FK228 and use thereof” (Astellas Pharma Inc., priority 2000, dated 2006).

Tested on: Mouse histone deacetylase
Assay: Assay of histone deacetylase activity ([3H] acetylated histone, crude histone deacetylase from FM3A cells)
Type: biochemical
Conditions: crude histone deacetylase fraction from FM3A cells, [3H] acetylated histone substrate, 37° C. for 10 min
Method: The histone deacetylase inhibitory activity of the FR135313 substance synthesized in Production Example 1 was examined.
Mouse breast cancer FM3A was supplied by Dr. Dai Ayusawa of Medical Department, Yokohama City University. This cell was subcultured in an ES medium containing 2% FBS (Flow Laboratories, hereinafter to be referred to as ES medium) at 37° C., in 5% CO2.
The [^3H] acetylated histone to be the substrate of histone deacetylase was prepared by culturing 1×10^8 cells of FM3A cell (suspended in 50 ml of ES medium) in the presence of 0.5 mCi/ml [^3H] sodium acetate and 5 mM sodium butyrate at 37° C. in 5% CO2 for 30 min, and immediately extracting histone fraction from the treated cells according to the following method. The specific radioactivity was 0.45 μCi/mg histone.
Extraction of histone protein from culture cell was conducted according to the method of Yoshida et al. (M. Yoshida et al., J. Biol. Chem. 265, 17174–17179 (1990)). […]
4 μl of [^3H] acetylated histone (2500 cpm/5 μg) and 96 μl of crude histone deacetylase fraction were admixed. […] The reaction was terminated by the addition of 10 μl of concentrated hydrochloric acid, and released [^3H] acetic acid was extracted with 1 ml of ethyl acetate, from which 0.9 ml was added to 5 ml of toluene scintillation solution and the radioactivity was measured.

In the case of C/C=C1\NC(=O)[C@@H](CS)NC(=O)[C@@H](C(C)C)NC(=O)C[C@@H](/C=C/CCS)OC(=O)[C@H](C(C)C)NC1=O [FR135313 substance], the “histone deacetylase inhibitory activity IC50” value was “not more than 1 ng/ml”.
